Experimental data published in ChEMBL document CHEMBL4396975, “Sodium Channel Modulators and Their Method of Use” (ACS Med Chem Lett, 2019).

biological target: Sodium channel protein type 9 subunit alpha (Homo sapiens, UniProt Q15858); experiment: Inhibition of human Nav1.7 expressed in HEK293 cells by automated electrophysiological patch clamp assay; type: cell-based
Sequence (Q15858 whole entry): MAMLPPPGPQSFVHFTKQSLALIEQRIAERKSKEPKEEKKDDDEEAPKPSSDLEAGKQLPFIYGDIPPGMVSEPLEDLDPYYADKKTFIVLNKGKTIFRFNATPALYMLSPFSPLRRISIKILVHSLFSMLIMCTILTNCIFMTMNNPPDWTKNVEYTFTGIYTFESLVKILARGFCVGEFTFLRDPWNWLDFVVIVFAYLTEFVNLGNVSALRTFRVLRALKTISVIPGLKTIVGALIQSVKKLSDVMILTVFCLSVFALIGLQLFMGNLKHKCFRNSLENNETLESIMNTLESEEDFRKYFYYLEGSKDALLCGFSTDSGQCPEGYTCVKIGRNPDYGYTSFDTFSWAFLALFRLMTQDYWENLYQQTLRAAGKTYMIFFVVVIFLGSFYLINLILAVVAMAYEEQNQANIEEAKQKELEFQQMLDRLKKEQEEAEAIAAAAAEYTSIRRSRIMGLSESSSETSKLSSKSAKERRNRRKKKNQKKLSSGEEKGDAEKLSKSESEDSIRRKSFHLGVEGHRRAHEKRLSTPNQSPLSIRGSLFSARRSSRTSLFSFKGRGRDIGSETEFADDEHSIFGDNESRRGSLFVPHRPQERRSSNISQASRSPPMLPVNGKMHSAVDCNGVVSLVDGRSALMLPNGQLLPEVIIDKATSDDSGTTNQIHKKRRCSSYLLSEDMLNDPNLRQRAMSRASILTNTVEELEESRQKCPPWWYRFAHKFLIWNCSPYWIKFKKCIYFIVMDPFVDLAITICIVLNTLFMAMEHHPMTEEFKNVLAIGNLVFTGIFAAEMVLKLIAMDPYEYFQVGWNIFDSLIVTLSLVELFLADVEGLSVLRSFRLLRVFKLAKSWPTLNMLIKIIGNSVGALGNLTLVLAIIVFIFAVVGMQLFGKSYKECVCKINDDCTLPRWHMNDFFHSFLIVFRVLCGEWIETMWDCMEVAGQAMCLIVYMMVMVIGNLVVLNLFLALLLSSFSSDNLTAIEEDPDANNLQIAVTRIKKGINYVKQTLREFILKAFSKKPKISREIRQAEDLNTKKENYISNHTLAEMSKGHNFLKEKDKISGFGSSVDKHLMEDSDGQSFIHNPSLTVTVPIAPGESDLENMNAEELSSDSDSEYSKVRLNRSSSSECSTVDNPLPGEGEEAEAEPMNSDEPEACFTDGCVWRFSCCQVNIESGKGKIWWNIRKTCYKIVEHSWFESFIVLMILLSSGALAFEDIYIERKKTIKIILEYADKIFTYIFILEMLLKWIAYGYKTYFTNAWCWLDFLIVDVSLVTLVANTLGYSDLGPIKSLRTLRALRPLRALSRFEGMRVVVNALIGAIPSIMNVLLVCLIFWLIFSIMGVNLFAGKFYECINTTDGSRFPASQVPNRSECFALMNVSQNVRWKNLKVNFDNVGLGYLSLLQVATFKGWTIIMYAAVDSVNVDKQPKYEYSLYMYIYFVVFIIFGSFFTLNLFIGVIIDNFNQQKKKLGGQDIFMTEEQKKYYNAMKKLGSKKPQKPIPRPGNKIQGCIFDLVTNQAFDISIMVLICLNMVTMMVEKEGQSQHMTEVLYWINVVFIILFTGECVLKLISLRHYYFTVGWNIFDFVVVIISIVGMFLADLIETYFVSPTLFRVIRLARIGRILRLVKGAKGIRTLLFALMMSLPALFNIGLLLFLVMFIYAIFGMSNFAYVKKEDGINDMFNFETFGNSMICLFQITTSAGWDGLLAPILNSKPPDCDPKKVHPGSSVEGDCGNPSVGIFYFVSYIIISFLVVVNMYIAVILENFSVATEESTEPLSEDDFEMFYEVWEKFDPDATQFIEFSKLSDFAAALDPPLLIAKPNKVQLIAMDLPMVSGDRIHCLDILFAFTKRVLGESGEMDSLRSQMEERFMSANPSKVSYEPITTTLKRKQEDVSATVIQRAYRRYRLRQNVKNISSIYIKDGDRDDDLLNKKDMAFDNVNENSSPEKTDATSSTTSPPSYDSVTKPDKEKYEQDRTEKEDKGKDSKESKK

Structure (SMILES)	IC50
CN(C)C(=O)[C@@H]1CC[C@H](c2ccc(Oc3nnnn3-c3ccccc3OC(F)(F)F)cc2)N1	1800 nM
CC(C)(C)c1ccccc1-n1nnnc1Oc1ccc([C@H]2CC[C@@H](C(N)=O)N2)cc1	1500 nM
CN1[C@@H](c2ccc(Oc3nnnn3-c3ccccc3C(F)(F)F)cc2)CC[C@H]1C(N)=O	1800 nM
COc1ccc(C)c(-n2nnnc2Oc2ccc([C@H]3CC[C@@H](C(N)=O)N3)cc2)c1	1100 nM
Cc1cc(C(F)(F)F)ccc1-n1nnnc1Oc1ccc([C@H]2CC[C@@H](C(N)=O)N2)cc1	1200 nM

Next, values leading:

IC50	Structure (SMILES)
890 nM	Cc1cccc(C)c1-n1nnnc1Oc1ccc([C@H]2CC[C@@H](C(N)=O)N2)cc1
1100 nM	NC(=O)[C@@H]1CC[C@H](c2ccc(Oc3nnnn3-c3ccccc3OC(F)(F)F)cc2)N1
720 nM	Cc1ccc(Cl)cc1-n1nnnc1Oc1ccc([C@H]2CC[C@@H](C(N)=O)N2)cc1
570 nM	NC(=O)[C@@H]1CC[C@H](c2ccc(Oc3nnnn3-c3cc(F)ccc3OC(F)(F)F)cc2)N1
680 nM	NC(=O)[C@@H]1CC[C@H](c2ccc(Oc3nnnn3-c3cc(Cl)ccc3OC(F)(F)F)cc2)N1
